Seven molecules from ChEMBL document CHEMBL1146643, “Potential hypotensive agents: synthesis and hypotensive activity of oxime ethers derived from 1-naphthoxepines and related compounds” (2004) can be followed below.

Assay type in all cases: functional
What all share (settings): route intravenous

In assay [1] the test system is Felis catus. The experiment in a line: Percent of maximum effect in anaesthetized cat at a dose of 1 mg/kg intravenously.
Assay [2] has as its system Felis catus. As to the kind of experiment: Percent of maximum effect in anaesthetized cat at a dose of 5 mg/kg intravenously.
Assay [3] has as its system Felis catus. The experiment in a line: Fall of blood pressure in anaesthetized cat at a dose of 1 mg/kg intravenously.
Assay [4] relates to Felis catus. As to the kind of experiment: Fall of blood pressure in anaesthetized cat at a dose of 5 mg/kg intravenously.

Turning to `CCCNCC(O)CO/N=C1\CCCOc2ccc3ccccc3c21` (stereo not drawn), the Max effect with Felis catus [1] and with Felis catus [2] was 17% each time. Also, the “Decrease in blood pressure” value with Felis catus [3] is on record as 18 mmHg; in the assay on Felis catus [4], 16 mmHg.
Turning to `CCCNCC(O)CO/N=C1\CCCOc2c1ccc1ccccc21` (stereo not drawn), the Max effect was found to be 21% in the assay with Felis catus [1] and 50% with Felis catus [2]. The figures for the “Decrease in blood pressure” value in the assay on Felis catus [3] and in the assay on Felis catus [4] were 20 mmHg and 60 mmHg, respectively.
As for `CC(C)NCC(O)CO/N=C1\CCCOc2c1ccc1ccccc21` (stereo not drawn), the values for the Max effect in the assay with Felis catus [1] and with Felis catus [2] were 14% and 88%, respectively. Also, the “Decrease in blood pressure” value with Felis catus [3] was determined as 20 mmHg; with Felis catus [4] it was 110 mmHg.
On to `CC(C)NCC(O)CO/N=C1\CCCOc2ccc3ccccc3c21` (stereo not drawn), for which the Max effect in the assay on Felis catus [1] is listed as 7%; with Felis catus [2], 70%. In addition, the “Decrease in blood pressure” value in the assay with Felis catus [3] turned out to be 10 mmHg; in the assay with Felis catus [4] it was 80 mmHg.
On the same counts, the results for `CC(C)(C)NCC(O)CO/N=C1\CCCOc2ccc3ccccc3c21` (stereo not drawn) are 21%, 41%, 18 mmHg and 50 mmHg.
On the same counts, the results for `CC(C)NCC(O)COc1cccc2ccccc12` (stereo not drawn) [PROPRANOLOL] are 35%, 41%, 46 mmHg and 50 mmHg.
On the same counts, the results for `CC(C)(C)NCC(O)CO/N=C1\CCCOc2c1ccc1ccccc21` (stereo not drawn) are 40%, 55%, 60 mmHg and 80 mmHg.
